In ChEMBL document CHEMBL1201862, “PubChem BioAssay data set” (2004):
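Protocol summary: plate cells (96-well), add compound at 5 concentrations, incubate 48 h, interpolate endpoints linearly. Abbreviation: GI50, concentration required for 50% inhibition of growth.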 Active and inactive are the calls of the source. Cut-off read from the data, not from the text of the source: active = GI50 up to about 1.1 µM and inactive = higher.

Key:
Assay in all cases: NCI tumour cell line growth inhibition, 48 h
A498 = tested on: A498
A549 = tested on: A549
ACHN = tested on: ACHN
CCRF-CEM = tested on: CCRF-CEM
HOP-92 = tested on: HOP-92
HT-29 = tested on: HT-29
KM12 = tested on: KM12
M14 = tested on: M14
MCF7 = tested on: MCF7
MDA-N = tested on: MDA-N
Malme-3M = tested on: Malme-3M
NCI-H23 = tested on: NCI-H23
NCI-H522 = tested on: NCI-H522
SK-MEL-5 = tested on: SK-MEL-5
SN12C = tested on: SN12C
SW-620 = tested on: SW-620
T47D = tested on: T47D
U-251 = tested on: U-251
UO-31 = tested on: UO-31
SF-268 = tested on: SF-268

Compound	GI50 (A498)	GI50 (A549)	GI50 (ACHN)	GI50 (CCRF-CEM)	GI50 (HOP-92)	GI50 (HT-29)	GI50 (KM12)	GI50 (M14)	GI50 (MCF7)	GI50 (MDA-N)	GI50 (Malme-3M)	GI50 (NCI-H23)	GI50 (NCI-H522)	GI50 (SK-MEL-5)	GI50 (SN12C)	GI50 (SW-620)	GI50 (T47D)	GI50 (U-251)	GI50 (UO-31)	GI50 (SF-268)
O=C1NC(=S)NC(=O)C1C(c1ccc(O)cc1)C1C(=O)NC(=S)NC1=O.c1ccncc1	> 100 µM (inactive)	> 100 µM (inactive)	> 100 µM (inactive)	> 100 µM (inactive)	> 100 µM (inactive)	> 100 µM (inactive)	> 100 µM (inactive)	> 100 µM (inactive)	> 100 µM (inactive)	> 100 µM (inactive)	> 100 µM (inactive)	> 100 µM (inactive)	> 100 µM (inactive)	> 100 µM (inactive)	> 100 µM (inactive)	> 100 µM (inactive)	> 100 µM (inactive)	> 100 µM (inactive)	> 100 µM (inactive)	
C[C@@H]1CC[C@@H]2[C@@H](C1)O[C@@H]([C@H](C)OCc1ccccc1)SC2(C)C	19.7 µM (inactive)	26.3 µM (inactive)	18.8 µM (inactive)			36 µM (inactive)	18.5 µM (inactive)	16.8 µM (inactive)	16.9 µM (inactive)	23.7 µM (inactive)	22.6 µM (inactive)	31.8 µM (inactive)	19.7 µM (inactive)	18.1 µM (inactive)	18.7 µM (inactive)	18.9 µM (inactive)	15.7 µM (inactive)	17.9 µM (inactive)	14.5 µM (inactive)	32.3 µM (inactive)
Sc1ccc2ccccc2c1CNCc1ccccc1	16.3 µM (inactive)	25.3 µM (inactive)	19 µM (inactive)	3.72 µM (inactive)		27.9 µM (inactive)	13.9 µM (inactive)	10 µM (inactive)	13.7 µM (inactive)	13.2 µM (inactive)	21.8 µM (inactive)	14.5 µM (inactive)	4.93 µM (inactive)	9.46 µM (inactive)	6.24 µM (inactive)	9.12 µM (inactive)	19.3 µM (inactive)	12.8 µM (inactive)	11.7 µM (inactive)	8.47 µM (inactive)
O=C([C@H](O)[C@@H](O)c1cccc(Cl)c1)C12CC3CC(CC(C3)C1)C2	2.31 µM (inactive)	2.19 µM (inactive)	1.91 µM (inactive)	1.14 µM (inactive)		2.37 µM (inactive)	2.26 µM (inactive)	2.45 µM (inactive)	0.667 µM (active)	1.93 µM (inactive)	4.81 µM (inactive)	1.79 µM (inactive)	2.23 µM (inactive)	4.13 µM (inactive)	1.61 µM (inactive)	2.06 µM (inactive)	2.16 µM (inactive)	1.53 µM (inactive)	1.9 µM (inactive)	1.81 µM (inactive)
O=C1c2ccccc2-c2c1c1ccccc1c(=O)n2Cc1ccccc1	49.1 µM (inactive)	> 100 µM (inactive)		> 100 µM (inactive)	63.1 µM (inactive)	> 100 µM (inactive)	> 100 µM (inactive)	> 100 µM (inactive)	> 100 µM (inactive)	> 100 µM (inactive)	> 100 µM (inactive)	68.2 µM (inactive)	54.3 µM (inactive)	73.6 µM (inactive)	> 100 µM (inactive)	> 100 µM (inactive)	> 100 µM (inactive)	93.8 µM (inactive)	> 100 µM (inactive)	58.5 µM (inactive)
C=C1CN=C(Nc2ccc(F)cc2F)S1	> 100 µM (inactive)	> 100 µM (inactive)	> 100 µM (inactive)	18.3 µM (inactive)	2.51 µM (inactive)	> 100 µM (inactive)	> 100 µM (inactive)		28 µM (inactive)	> 100 µM (inactive)	> 100 µM (inactive)	> 100 µM (inactive)		> 100 µM (inactive)	> 100 µM (inactive)	> 100 µM (inactive)	> 100 µM (inactive)	> 100 µM (inactive)	> 100 µM (inactive)	> 100 µM (inactive)
COC(=O)c1cc(O)c(O)c(O)c1-c1c(O)c(O)c(O)c(SC[C@H](NC(=O)OCc2ccccc2)C(=O)OCc2ccccc2)c1C(=O)OC	31.5 µM (inactive)	17.9 µM (inactive)	22.5 µM (inactive)	16.3 µM (inactive)	26.2 µM (inactive)	28.3 µM (inactive)	31.9 µM (inactive)	17.9 µM (inactive)	18 µM (inactive)	19.8 µM (inactive)	78.5 µM (inactive)	22 µM (inactive)	22.3 µM (inactive)		19.4 µM (inactive)	23.8 µM (inactive)	32.4 µM (inactive)	16.4 µM (inactive)		25.9 µM (inactive)
